Experimental data as given in the supplement of paper PMC10307832.

Key:
Assay in all cases: relative viability (nuclei count vs DMSO), 5 days (fraction); higher = more cells survive
RO-3306 + OSI-027 = compound: C1=CC2=C(C=CC(=C2)C=C3C(=O)NC(=NCC4=CC=CS4)S3)N=C1 [RO-3306] + COc1cccc2cc(-c3nc([C@H]4CC[C@H](C(=O)O)CC4)n4ncnc(N)c34)[nH]c12 [OSI-027] (partner 0.5 µM)
In short: (§1)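 A single step with final 0.05% Triton X-100, 1% formaldehyde and 1 ug/ml Hoechst fixed the cells and stained nuclei 5 days after treatment. Lung cancer cell lines in 1536-well plates had been treated by pin tool the day after seeding with one drug alone or a fixed anchor-drug dose plus five library-drug doses (not always all listed) in √10 steps, and nuclei were counted on 4× images. Relative viability is the ratio of nuclei in treated wells to nuclei in vehicle wells, taken as the median of duplicate plates.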

RO-3306 + Dasatinib = compound: C1=CC2=C(C=CC(=C2)C=C3C(=O)NC(=NCC4=CC=CS4)S3)N=C1 [RO-3306] + Cc1nc(Nc2ncc(C(=O)Nc3c(C)cccc3Cl)s2)cc(N2CCN(CCO)CC2)n1 [Dasatinib] (partner 0.075 µM)
In short: as §1

RO-3306 + Foretinib = compound: C1=CC2=C(C=CC(=C2)C=C3C(=O)NC(=NCC4=CC=CS4)S3)N=C1 [RO-3306] + COc1cc2c(Oc3ccc(NC(=O)C4(C(=O)Nc5ccc(F)cc5)CC4)cc3F)ccnc2cc1OCCCN1CCOCC1 [Foretinib] (partner 0.25 µM)
In short: as §1

[1] = compound: O=S(=O)(c1ccccc1)N(CC(F)(F)F)c1ccc(C(O)(C(F)(F)F)C(F)(F)F)cc1 + Cc1nc(NC(=O)N2CCC[C@H]2C(N)=O)sc1-c1ccnc(C(C)(C)C(F)(F)F)c1 [Alpelisib] (partner 2 µM)
In short: as §1

Question: NCI-H1623 was tested. Which relative viability (RO-3306 + OSI-027; first compound 0.01 µM) did it give?
Answer: 0.408

Question: What about the relative viability (RO-3306 + OSI-027; first compound 0.03162 µM) of the same cell line?
Answer: 0.384

Question: What about the relative viability (RO-3306 + OSI-027; first compound 0.1 µM) of the same cell line?
Answer: 0.45

Question: What about the relative viability (RO-3306 + OSI-027; first compound 0.3162 µM) of the same cell line?
Answer: 0.368

Question: And the relative viability (RO-3306 + OSI-027; first compound 1 µM)?
Answer: 0.405

Question: What about the relative viability (RO-3306 + Dasatinib; first compound 0.01 µM) of the same cell line?
Answer: 0.474

Question: And the relative viability (RO-3306 + Dasatinib; first compound 0.03162 µM)?
Answer: 0.504

Question: And the relative viability (RO-3306 + Dasatinib; first compound 0.1 µM)?
Answer: 0.525

Question: What about the relative viability (RO-3306 + Dasatinib; first compound 0.3162 µM) of the same cell line?
Answer: 0.555

Question: What about the relative viability (RO-3306 + Dasatinib; first compound 1 µM) of the same cell line?
Answer: 0.52

Question: And the relative viability (RO-3306 + Foretinib; first compound 0.01 µM)?
Answer: 0.908

Question: What about the relative viability (RO-3306 + Foretinib; first compound 0.03162 µM) of the same cell line?
Answer: 0.749

Question: What about the relative viability (RO-3306 + Foretinib; first compound 0.1 µM) of the same cell line?
Answer: 0.761

Question: And the relative viability (RO-3306 + Foretinib; first compound 0.3162 µM)?
Answer: 0.823

Question: What about the relative viability (RO-3306 + Foretinib; first compound 1 µM) of the same cell line?
Answer: 0.739

Question: For NCI-H1648, which relative viability (RO-3306 + OSI-027; first compound 0.01 µM) is on record?
Answer: 0.247

Question: What about the relative viability (RO-3306 + OSI-027; first compound 0.1 µM) of the same cell line?
Answer: 0.289

Question: And the relative viability (RO-3306 + OSI-027; first compound 0.3162 µM)?
Answer: 0.249

Question: And the relative viability (RO-3306 + OSI-027; first compound 1 µM)?
Answer: 0.241

Question: For NCI-H1650, which relative viability (RO-3306 + OSI-027; first compound 0.01 µM) is on record?
Answer: 0.715

Question: What about the relative viability (RO-3306 + OSI-027; first compound 0.03162 µM) of the same cell line?
Answer: 0.409

Question: And the relative viability (RO-3306 + OSI-027; first compound 0.1 µM)?
Answer: 0.516

Question: And the relative viability (RO-3306 + OSI-027; first compound 0.3162 µM)?
Answer: 0.637

Question: And the relative viability (RO-3306 + OSI-027; first compound 1 µM)?
Answer: 0.587

Question: And the relative viability (RO-3306 + Dasatinib; first compound 0.01 µM)?
Answer: 0.326

Question: And the relative viability (RO-3306 + Dasatinib; first compound 0.03162 µM)?
Answer: 0.284

Question: And the relative viability (RO-3306 + Dasatinib; first compound 0.1 µM)?
Answer: 0.311

Question: And the relative viability (RO-3306 + Dasatinib; first compound 0.3162 µM)?
Answer: 0.33

Question: And the relative viability (RO-3306 + Dasatinib; first compound 1 µM)?
Answer: 0.291

Question: What about the relative viability (RO-3306 + Foretinib; first compound 0.01 µM) of the same cell line?
Answer: 1.73

Question: And the relative viability (RO-3306 + Foretinib; first compound 0.03162 µM)?
Answer: 0.858

Question: And the relative viability (RO-3306 + Foretinib; first compound 0.1 µM)?
Answer: 0.917

Question: What about the relative viability (RO-3306 + Foretinib; first compound 0.3162 µM) of the same cell line?
Answer: 1.11

Question: What about the relative viability (RO-3306 + Foretinib; first compound 1 µM) of the same cell line?
Answer: 0.723

Question: For NCI-H1703, which relative viability (RO-3306 + Foretinib; first compound 0.01 µM) is on record?
Answer: 0.392

Question: And the relative viability (RO-3306 + Foretinib; first compound 0.1 µM)?
Answer: 0.325

Question: What about the relative viability (RO-3306 + Foretinib; first compound 0.3162 µM) of the same cell line?
Answer: 0.389

Question: What about the relative viability (RO-3306 + Foretinib; first compound 1 µM) of the same cell line?
Answer: 0.345

Question: What about the relative viability ([1]; first compound 0.8 µM) of the same cell line?
Answer: 0.343

Question: And the relative viability ([1]; first compound 2.53 µM)?
Answer: 0.316

Question: What about the relative viability ([1]; first compound 8 µM) of the same cell line?
Answer: 0.382

Question: With NCI-H1792 as the cell line, how does the relative viability (RO-3306 + OSI-027; first compound 0.01 µM) read?
Answer: 0.896

Question: What about the relative viability (RO-3306 + OSI-027; first compound 0.1 µM) of the same cell line?
Answer: 0.743

Question: What about the relative viability (RO-3306 + OSI-027; first compound 0.3162 µM) of the same cell line?
Answer: 0.81

Question: What about the relative viability (RO-3306 + OSI-027; first compound 1 µM) of the same cell line?
Answer: 0.551

Question: And the relative viability (RO-3306 + Dasatinib; first compound 0.01 µM)?
Answer: 1.03

Question: And the relative viability (RO-3306 + Dasatinib; first compound 0.1 µM)?
Answer: 0.752

Question: What about the relative viability (RO-3306 + Dasatinib; first compound 0.3162 µM) of the same cell line?
Answer: 0.814

Question: And the relative viability (RO-3306 + Dasatinib; first compound 1 µM)?
Answer: 0.55

Question: What about the relative viability ([1]; first compound 0.8 µM) of the same cell line?
Answer: 0.629

Question: What about the relative viability ([1]; first compound 2.53 µM) of the same cell line?
Answer: 0.445

Question: What about the relative viability ([1]; first compound 8 µM) of the same cell line?
Answer: 0.34

Question: NCI-H2342 was tested. Which relative viability (RO-3306 + OSI-027; first compound 0.01 µM) did it give?
Answer: 0.664

Question: And the relative viability (RO-3306 + OSI-027; first compound 0.03162 µM)?
Answer: 0.559

Question: And the relative viability (RO-3306 + OSI-027; first compound 0.1 µM)?
Answer: 0.616

Question: And the relative viability (RO-3306 + OSI-027; first compound 0.3162 µM)?
Answer: 0.575

Question: And the relative viability (RO-3306 + OSI-027; first compound 1 µM)?
Answer: 0.596

Question: What about the relative viability (RO-3306 + Dasatinib; first compound 0.01 µM) of the same cell line?
Answer: 0.37

Question: And the relative viability (RO-3306 + Dasatinib; first compound 0.03162 µM)?
Answer: 0.306

Question: And the relative viability (RO-3306 + Dasatinib; first compound 0.1 µM)?
Answer: 0.319

Question: And the relative viability (RO-3306 + Dasatinib; first compound 0.3162 µM)?
Answer: 0.289

Question: And the relative viability (RO-3306 + Dasatinib; first compound 1 µM)?
Answer: 0.303

Question: And the relative viability (RO-3306 + Foretinib; first compound 0.01 µM)?
Answer: 1.13

Question: What about the relative viability (RO-3306 + Foretinib; first compound 0.03162 µM) of the same cell line?
Answer: 0.889

Question: And the relative viability (RO-3306 + Foretinib; first compound 0.1 µM)?
Answer: 1.08

Question: And the relative viability (RO-3306 + Foretinib; first compound 0.3162 µM)?
Answer: 1.05

Question: What about the relative viability (RO-3306 + Foretinib; first compound 1 µM) of the same cell line?
Answer: 0.885

Question: Which relative viability (RO-3306 + OSI-027; first compound 0.01 µM) does the source give for SW 900 here?
Answer: 0.486

Question: What about the relative viability (RO-3306 + OSI-027; first compound 0.03162 µM) of the same cell line?
Answer: 0.427

Question: What about the relative viability (RO-3306 + OSI-027; first compound 0.1 µM) of the same cell line?
Answer: 0.467

Question: What about the relative viability (RO-3306 + OSI-027; first compound 0.3162 µM) of the same cell line?
Answer: 0.551

Question: And the relative viability (RO-3306 + OSI-027; first compound 1 µM)?
Answer: 0.266

Question: And the relative viability (RO-3306 + Dasatinib; first compound 0.01 µM)?
Answer: 0.505

Question: What about the relative viability (RO-3306 + Dasatinib; first compound 0.03162 µM) of the same cell line?
Answer: 0.538

Question: And the relative viability (RO-3306 + Dasatinib; first compound 0.1 µM)?
Answer: 0.658

Question: And the relative viability (RO-3306 + Dasatinib; first compound 0.3162 µM)?
Answer: 0.859

Question: And the relative viability (RO-3306 + Dasatinib; first compound 1 µM)?
Answer: 0.542

Question: What about the relative viability (RO-3306 + Foretinib; first compound 0.01 µM) of the same cell line?
Answer: 0.965

Question: What about the relative viability (RO-3306 + Foretinib; first compound 0.03162 µM) of the same cell line?
Answer: 1.12

Question: And the relative viability (RO-3306 + Foretinib; first compound 0.1 µM)?
Answer: 0.68

Question: What about the relative viability (RO-3306 + Foretinib; first compound 0.3162 µM) of the same cell line?
Answer: 0.806

Question: What about the relative viability (RO-3306 + Foretinib; first compound 1 µM) of the same cell line?
Answer: 0.644
